Laboratory results taken from patent US6890361B2, “Modification of printed and dyed materials” (Novozymes North America, Inc., priority 2001, dated 2005).

Key:
[1] = UV-vis absorbance of disperse dyes dissolved in acetone (reference); assay type: physicochemical; conditions: dye concentration 50 mg/l
cutinase = conditions: Table 3
Method: 5 mg/ml dye stock (suspension in 20 mM pH8 phosphate buffer) was made for each commercial dye. Since the absorbance of an opaque dye suspension cannot be detected by UV-vis spectrometer, these fives dyes were dissolved in acetone in the concentration of 50˜100 mg/L and the absorbance of each dye solution was measured as reference (see Table 1).
After 10 min. preheating in waterbath, each sample was dosed with 62.5 mg/L cutinase and incubated for 10 min. The samples were then taken out for UV-vis measurement.

[2] = Alkaline (NaOH) treatment of disperse dye suspension, UV-vis absorbance of solubilized dye; assay type: physicochemical; parameters: key: #: Means absorbance was not detectable by UV-vis spectrometer due to the turbidity of the suspension; conditions: in water, [Dye] = 50 mg/L, Table 3
Method: This procedure was repeated for the alkaline treatment at 80° C.

For `CCC(=O)Nc1cc(N(CCOC(C)=O)CCOC(C)=O)ccc1N=Nc1ccc([N+](=O)[O-])cc1Cl` [Disperse Red 167], the Abs@λ max [1] was 1.23, the “effect of cutinase treatment on dye solubility (in words)” value (cutinase; cutinase treated) was “increase in dye solubility” and the “Cutinase Treated (70 C.) Abs@λ_max” value (cutinase; in water, [Dye] = 50 mg/L, λ_max 480 nm) was 0.4249 AU. The “NaOH Treated (70 C.) Abs@λ_max” value ([2]; 70 C.) was “#” and the “NaOH Treated (80 C.) Abs@λ_max” value ([2]; 80 C.) was “#”.
